Assay results taken from patent US6844349B2, “Salt forms of E-2-methoxy-N-(3-{4-[3 methyl-4-(6-methyl-pyridin-3-yloxy)-phenylamino]-quinazolin-6-yl}-allyl)-acetamide and method of production” (Pfizer Inc, priority 2001, dated 2005).

Assays:
[1] = crystallinity of the complexes; format: physicochemical; conditions: solid complex; i.e., substantially free of amorphous material
[2] = hygroscopic stability of the complexes; format: physicochemical; conditions: solid complex; weight changes of the active ingredient during manufacture of capsules or tablets

SMILES: COCC(=O)NC/C=C/c1ccc2ncnc(Nc3ccc(Oc4ccc(C)nc4)c(C)c3)c2c1.O=C(O)CC(=O)O.O=C(O)CC(=O)O [di-malonate, Di-malonate Complex of E-2-Methoxy-N-(3-{4-[3-methyl-4-(6-methyl-pyridin-3-yloxy)-phenylamino]-quinazolin-6-yl}-allyl)-acetamide]
- crystallinity [1]: high crystallinity
- hygroscopic stability [2]: substantially hygroscopically stable

SMILES: COCC(=O)NC/C=C/c1ccc2ncnc(Nc3ccc(Oc4ccc(C)nc4)c(C)c3)c2c1.COCC(=O)NC/C=C/c1ccc2ncnc(Nc3ccc(Oc4ccc(C)nc4)c(C)c3)c2c1.O=C(O)CCC(=O)O.O=C(O)CCC(=O)O.O=C(O)CCC(=O)O [sesquisuccinate, Sesquisuccinate Complex of E-2-Methoxy-N-(3-{4-[3-methyl-4-(6-methyl-pyridin-3-yloxy)-phenylamino]-quinazolin-6-yl}-allyl)-acetamide]
- crystallinity [1]: high crystallinity
- hygroscopic stability [2]: substantially hygroscopically stable
